Ends that are not written are not given here.
Key:
[1] = system: Group B Strep (GBS); test: Group B Strep susceptibility to CRAMP; format: cell-based; conditions: 16 uM peptide; without NaHCO3
[2] = system: Salmonella; test: Salmonella susceptibility to CRAMP; format: cell-based; conditions: 16 uM peptide; without NaHCO3
[3] = system: Staphylococcus aureus; test: S. aureus growth inhibition (turbidity OD600) with or without carbonate; format: cell-based; conditions: for Susceptibility of S. aureus: 16 uM peptide; for Effect of NaHCO3 on minimal inhibitory concentration (MIC) against Staph aureus: 20% TSB, 1 mM NaH2PO4, 50 mM NaHCO3, pH 7.4
Experimental: Carbonate was identified as the antimicrobial enhancing factor in mammalian tissue culture media via serial deletion of Minimal Essential Media (MEM) components. Staphylococcus aureus was cultured in 20% Tryptic Soy Broth (TSB), 10% Fetal Bovine Serum (FBS) and 70% of various media or media components with, or without, 32 μM LL-37 to assess which components could increase antimicrobial activity. MEM buffers are 2200 mg/L NaHCO3, 140 mg/L NaH2PO4 and 6800 mg/L NaCl. MEM salts are 200 mg/L CaCl2, 400 mg/L KCl, 98 mg/L MgSO4. All solutions were adjusted to pH 7.4. Bacterial growth was measured as the change in turbidity at OD600 and percent inhibition was determined by comparing bacterial growth in the presence of peptide to that in the absence of peptide. […]
Inhibition of Staph aureus growth in the presence of various concentrations of human (LL-37), murine (CRAMP) and porcine (PR-39). Cathelicidin antimicrobial peptides was measured in 20% TSB, 1 mM NaH2PO4, with, or without, 50 mM NaHCO3 at pH 7.4. […]

[4] = system: antigen presentation; test: Antigen presentation in vitro; format: cell-based
[5] = system: E. coli; test: E. coli susceptibility to CRAMP with or without NaHCO3; format: cell-based; conditions: 16 uM peptide
[6] = system: C. albicans ATCC 14053; test: Liquid assay against C. albicans (minimum fungicide concentration); format: cell-based, Candida albicans; conditions: for Fungicidal activity against Candida albicans compared to LL-37: synthetic peptides
Experimental: (§1) Activity against Group A Streptococcus (NZ131) was done only in solution assay as described. To evaluate antimicrobial activity in high salt conditions, solution assay was done in 10% TSB/10 mM PBS with several salt concentrations (concentration of NaCl; 10, 50, 100, 150, 300, 500 mM). Action against the C. albicans was determined in Dixon medium (0.6% Peptone, 4% Malt Extract, 1% Glucose, 0.1% Ox Bile, 1% Tween-80) in sterile 96-well microtiter plates (Corning Inc., Corning, N.Y.) at a final volume of […]. The assay mixtures contained 1-2.5×10^4 […] freshly grown Candida, 20% Dixon medium, 0.6 mM phosphate buffer pH 7, and […] chloramphenicol. Microtiter plates were incubated at 37° C. for 24 h with peptides, then plated on Dixon agar to determine the MFC (minimum fungicide concentration).

[7] = system: enteroinvasive E. coli 029; test: Radial diffusion assay against E. coli 029; format: cell-based; conditions: for Action against E. coli compared to LL-37: synthetic peptides
Experimental: (§2) Antimicrobial assays. For screening of antimicrobial activity of HPLC fractions, radial diffusion assay was used. Lyophilized HPLC fractions were dissolved in DW (GibcoBRL, Grand Island, N.Y.), and tested against Staphylococcus aureus mprF. Thin plates (1 mm) of 1% agarose in 0.5% tryptone containing approximately […] of S. aureus mprF were used. 1 mm wells were punched in the plates and […] of samples dissolved in tissue culture grade sterile water were loaded in each well.
(§3) As a positive control, synthetic LL-37 was applied to separate wells. After incubation at 37° C. overnight, the inhibition zones were recorded by CCD camera and diameters measured. To evaluate antimicrobial activity against wild-type S. aureus (clinical isolate), and enteroinvasive E. coli 029, both radial diffusion and solution killing assays were done. Radial diffusion assays were done as described for S. aureus mprF. Solution killing was done in 10% TSB in 10 mM PB (TSB=30 gm/L Tryptic Soy Broth, Sigma, St Louis Mo.; 20×PB=27.6 g/L NaH2PO4-H2O, 53.65 g/L Na2HPO4-7H2O, pH 7.4). Bacteria in log-phase growth were suspended to 1×10^6 cells/ml, peptide added and incubated at 37° C. for 2 hr. Bacteria were then plated on TSB agar (TSB, Bactoagar 13 g/L, Becton Dickinson, Sparks Md.) for direct colony count and determination of CFU.

[8] = system: human erythrocytes; test: Hemolysis assay on human whole blood; format: cell-based
Experimental: Hemolysis Assay. Hemolytic activity was determined on human whole blood. Freshly obtained whole blood was washed 3× in PBS and resuspended in PBS at its original volume containing peptides at indicated concentrations. Samples were incubated at 37° C. for 1.5 to 3 h, and hemolysis determined by centrifuging at 300 g and measurement of the absorbance of the supernatant at 578 nm. Hemolytic activity of each peptide was expressed as the percentage of total hemoglobin released compared to that released by incubating with 0.1% Triton X-100.

[9] = system: wild-type S. aureus (clinical isolate); test: Radial diffusion assay against wild-type S. aureus; format: cell-based, Staphylococcus aureus; conditions: for Action against wild-type S. aureus compared to LL-37: synthetic peptides
Experimental: as §2, §3

[10] = system: Group A Streptococcus (NZ131); format: cell-based
Experimental: as §3, §1

[11] = system: Staphylococcus aureus mprF; test: Radial diffusion assay against S. aureus mprF; format: cell-based
Experimental: as §2, §3

[12] = system: S. aureus; test: Release of cytoplasmic beta-galactosidase (membrane disruption); format: cell-based; conditions: with carbonate versus without
Excerpt: Release of cytoplasmic expressed beta-galactosidase was measure from bacteria with and without the addition of NaHCO3.

Substance	Liquid Assay minimal concentration required to kill C. albicans ATCC 14053 [6]	Fungicidal activity against Candida albicans compared to LL-37 [6]	Radial Diffusion Assay minimal inhibitory concentration (MIC), E. coli (029) [7]	% hemolysis [8]	Radial Diffusion Assay minimal inhibitory concentration (MIC), S. aureus (wt) [9]	Liquid Assay minimal concentration required to kill GAS (NZ131) [10]	Radial Diffusion Assay minimal inhibitory concentration (MIC), S. aurus MprF [11]	further results
CRAMP	–	–	–	–	–	–	–	Susceptibility of Group B Strep (GBS) [1]: susceptible; Susceptibility of Salmonella [2]: susceptible; Susceptibility of S. aureus ([3]; with 50 mM NaHCO3): susceptible; Susceptibility of S. aureus ([3]; without 50 mM NaHCO3): resistant; Effect of NaHCO3 on minimal inhibitory concentration (MIC) against Staph aureus [3]: greatly reduced; Antigen presentation in vitro [4]: inhibits antigen presentation; Susceptibility of E. coli ([5]; with 50 mM NaHCO3): susceptible; Susceptibility of E. coli ([5]; without 50 mM NaHCO3): resistant
KRIVQRIKDFLRNLVPRTES (listed as Homo sapiens) [KR-20, 20 amino acid cathelicidin derivative]	10 μm	increased fungicidal activity	>64 μm	0%	>64 μm	4 μm	16 μm	–
KSKEKIGKEFKRIVQRIKDFLRNLVPRTES [KS-30]	2 μm	increased fungicidal activity	8 μm	.23%	16 μm	4 μm	8 μm	Action against E. coli compared to LL-37 [7]: greatly increased action; Action against wild-type S. aureus compared to LL-37 [9]: greatly increased action
PR-39: porcine cathelicidin antimicrobial peptide (RRRPRPPYLPRPRPPPFFPPRLPPRIPPGFPPRFPPRFP; UniProt P80054 131-169, looked up)	–	–	–	–	–	–	–	Effect of NaHCO3 on minimal inhibitory concentration (MIC) against Staph aureus [3]: greatly reduced
Polymyxin B	–	–	–	–	–	–	–	Leakage of cytoplasmic protein (beta-galactosidase) from S. aureus [12]: greater leakage
RKSKEKIGKEFKRIVQRIKDFLRNLVPRTES (listed as Homo sapiens) [RK-31, cathelicidin peptide generated from LL-37]	4 μm	increased fungicidal activity	8 μm	6%	16 μm	8 μm	8 μm	Action against E. coli compared to LL-37 [7]: greatly increased action; Action against wild-type S. aureus compared to LL-37 [9]: greatly increased action
SSLLEKGLDGAKKAVGGLGKLGKDAVEDLESVGKGAVHDVKDVLDSV (listed as Homo sapiens) [DCD, dermcidin antimicrobial peptide of human sweat, reference compound]	>32 μm	–	>64 μm	–	>64 μm	>64 μm	>64 μm	–

Reference: patent publication US7776823B2, “Human cathelicidin antimicrobial peptides” (priority 2003, dated 2010)
